Patent US12441703B2, “Carboxamides as modulators of sodium channels” (VERTEX PHARMACEUTICALS INCORPORATED, priority 2019, dated 2025)

What follows are compounds tested against human NaV 1.8 (Homo sapiens, UniProt Q9Y5Y9) (assay: E-VIPR assay for detecting and measuring NaV inhibition properties). Settings: E-VIPR assay conducted in the absence of human serum (compounds marked *); HEK cells expressing truncated human NaV 1.8; read-out: IC50.
Format: cell-based
Procedure, shortened: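 Membrane-potential (coumarin/oxonol) readout after 10 s of 10 Hz biphasic electrical stimulation on E-VIPR. Compounds: 11-point 3-fold dilutions, […], 0.625% DMSO, 30 min at room temperature, human serum optional. Cells: HEK expressing truncated human NaV1.8 co-transduced with KIR2.1.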

Chain of human NaV 1.8 (Q9Y5Y9 whole entry, looked up, the tested form may be a part): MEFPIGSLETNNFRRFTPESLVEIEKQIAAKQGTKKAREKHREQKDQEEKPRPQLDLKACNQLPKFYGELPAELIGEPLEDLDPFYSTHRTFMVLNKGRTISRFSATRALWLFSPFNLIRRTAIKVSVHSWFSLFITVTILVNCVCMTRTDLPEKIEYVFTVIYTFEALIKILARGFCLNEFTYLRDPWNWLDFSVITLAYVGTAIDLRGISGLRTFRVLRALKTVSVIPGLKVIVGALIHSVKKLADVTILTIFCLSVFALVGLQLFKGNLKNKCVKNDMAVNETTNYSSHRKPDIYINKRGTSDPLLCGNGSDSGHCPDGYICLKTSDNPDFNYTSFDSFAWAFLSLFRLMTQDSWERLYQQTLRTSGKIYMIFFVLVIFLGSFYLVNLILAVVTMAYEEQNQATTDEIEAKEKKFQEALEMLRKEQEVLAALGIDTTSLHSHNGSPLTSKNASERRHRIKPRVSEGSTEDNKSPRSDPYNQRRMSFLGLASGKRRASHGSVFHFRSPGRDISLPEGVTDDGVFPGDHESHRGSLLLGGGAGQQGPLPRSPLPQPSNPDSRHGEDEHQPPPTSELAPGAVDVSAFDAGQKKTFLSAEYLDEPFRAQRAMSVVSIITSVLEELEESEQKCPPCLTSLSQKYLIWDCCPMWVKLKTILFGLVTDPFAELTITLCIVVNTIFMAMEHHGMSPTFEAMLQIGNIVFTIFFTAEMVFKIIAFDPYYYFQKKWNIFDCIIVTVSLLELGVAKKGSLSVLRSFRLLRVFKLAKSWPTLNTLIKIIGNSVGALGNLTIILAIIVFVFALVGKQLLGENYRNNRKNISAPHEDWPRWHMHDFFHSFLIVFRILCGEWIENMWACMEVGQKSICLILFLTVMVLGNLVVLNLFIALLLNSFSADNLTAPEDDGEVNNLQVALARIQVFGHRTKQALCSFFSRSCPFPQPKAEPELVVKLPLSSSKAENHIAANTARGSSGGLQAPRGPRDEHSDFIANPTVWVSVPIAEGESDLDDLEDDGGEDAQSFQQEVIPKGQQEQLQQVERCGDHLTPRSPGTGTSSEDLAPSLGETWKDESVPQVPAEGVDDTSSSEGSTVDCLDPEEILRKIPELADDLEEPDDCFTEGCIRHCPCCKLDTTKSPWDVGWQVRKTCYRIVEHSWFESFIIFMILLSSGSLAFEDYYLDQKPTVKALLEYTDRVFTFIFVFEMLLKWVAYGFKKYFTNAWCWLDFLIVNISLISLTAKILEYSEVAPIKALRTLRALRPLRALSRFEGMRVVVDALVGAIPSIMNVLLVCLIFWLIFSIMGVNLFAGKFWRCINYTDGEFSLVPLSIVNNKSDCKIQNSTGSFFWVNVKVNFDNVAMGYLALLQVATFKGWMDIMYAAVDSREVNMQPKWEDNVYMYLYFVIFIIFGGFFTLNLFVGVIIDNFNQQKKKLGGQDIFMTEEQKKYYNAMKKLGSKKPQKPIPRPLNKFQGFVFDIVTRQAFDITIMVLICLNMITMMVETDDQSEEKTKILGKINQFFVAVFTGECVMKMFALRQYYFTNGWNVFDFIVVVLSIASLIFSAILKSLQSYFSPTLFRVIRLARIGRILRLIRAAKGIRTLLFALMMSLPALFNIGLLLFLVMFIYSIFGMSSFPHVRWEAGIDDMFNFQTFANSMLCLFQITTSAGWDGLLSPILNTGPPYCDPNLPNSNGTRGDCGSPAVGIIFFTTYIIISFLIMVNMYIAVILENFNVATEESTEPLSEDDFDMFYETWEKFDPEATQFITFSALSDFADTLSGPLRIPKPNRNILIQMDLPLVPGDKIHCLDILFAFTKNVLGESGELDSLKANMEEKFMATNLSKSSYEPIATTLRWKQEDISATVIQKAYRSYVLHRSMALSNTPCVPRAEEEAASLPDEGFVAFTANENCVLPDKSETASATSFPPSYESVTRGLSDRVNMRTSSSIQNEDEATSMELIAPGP

IC50 | Structure (SMILES)
13 nM | COc1cc(Oc2ccc(F)cc2Cl)c(C(=O)Nc2cnc(C(N)=O)nc2)c(F)c1C(F)(F)F [Compound 366, 5-[[6-(2-chloro-4-fluoro-phenoxy)-2-fluoro-4-methoxy-3-(trifluoromethyl)benzoyl]amino]pyrimidine-2-carboxamide]

Same assay, conditions: E-VIPR assay conducted in the presence of human serum; HEK cells expressing truncated human NaV 1.8; read-out: IC50

Structure (SMILES) | IC50
COc1c(C(F)(F)F)ccc(Oc2ccc(OC(F)(F)F)cc2Cl)c1C(=O)Nc1ccnc(C(N)=O)c1 [Compound 66, 4-[[6-[2-chloro-4-(trifluoromethoxy)phenoxy]-2-methoxy-3-(trifluoromethyl)benzoyl]amino]pyridine-2-carboxamide] | 16 nM
CCOc1ccc(Oc2ccc(C(F)(F)F)c(F)c2C(=O)Nc2ccnc(C(N)=O)c2)cc1F [Compound 29, 4-[[6-(4-ethoxy-3-fluoro-phenoxy)-2-fluoro-3-(trifluoromethyl)benzoyl]amino]pyridine-2-carboxamide] | 45 nM
NC(=O)c1cc(NC(=O)c2c(Oc3ccc(C(F)(F)F)nc3)ccc(C(F)(F)F)c2F)ccn1 [Compound 39, 4-[[2-fluoro-3-(trifluoromethyl)-6-[[6-(trifluoromethyl)-3-pyridyl]oxy]benzoyl]amino]pyridine-2-carboxamide] | > 3000 nM
COc1cc(OC(F)(F)F)ccc1Oc1cc(C2CCC(OC)CC2)ccc1C(=O)Nc1ccnc(C(N)=O)c1 (single isomer, unassigned) [1032 (first diastereomer), 4-[[4-(4-methoxycyclohexyl)-2-[2-methoxy-4-(trifluoromethoxy)phenoxy]benzoyl]amino]pyridine-2-carboxamide] | 524 nM
COc1c(C(F)(F)F)ccc(Oc2ccc(OC3CCCCC3)cc2)c1C(=O)Nc1ccnc(C(N)=O)c1 [Compound 60, 4-[[6-[4-(cyclohexoxy)phenoxy]-2-methoxy-3-(trifluoromethyl)benzoyl]amino]pyridine-2-carboxamide] | 520 nM
NC(=O)c1cc(NC(=O)c2c(Oc3ccc(OC(F)(F)F)c(F)c3C3CC3)ccc(C(F)(F)F)c2F)ccn1 [Compound 345, 4-[[6-[2-cyclopropyl-3-fluoro-4-(trifluoromethoxy)phenoxy]-2-fluoro-3-(trifluoromethyl)benzoyl]amino]pyridine-2-carboxamide] | 2.5 nM
[2H]C([2H])([2H])Oc1cc(OC(F)(F)F)ccc1Oc1ccc(C(F)(F)F)c(C)c1C(=O)Nc1ccnc(C(N)=O)c1 [Compound 117] | 2 nM
Cc1cnc(C(N)=O)cc1NC(=O)c1c(Oc2ccc(OC(F)(F)F)cc2C)ccc(C(F)(F)F)c1F [Compound 285, 4-[[2-Fluoro-6-[2-Methyl-4-(Trifluoromethoxy)Phenoxy]-3-(Trifluoromethyl)Benzoyl]Amino]-5-Methyl-Pyridine-2-Carboxamide] | 26 nM
NC(=O)c1cc(NC(=O)c2ccc(C(F)(F)F)cc2Oc2cccc(C3CCCCC3)c2)ccn1 [Compound 110, 4-[[2-(3-cyclohexylphenoxy)-4-(trifluoromethyl)benzoyl]amino]pyridine-2-carboxamide] | > 3000 nM
COc1cc(C)cc(OC)c1Oc1ccc(C(F)(F)F)c(F)c1C(=O)Nc1ccc(C(N)=O)nc1 [Compound 211, 5-[[6-(2,6-dimethoxy-4-methyl-phenoxy)-2-fluoro-3-(trifluoromethyl)benzoyl]amino]pyridine-2-carboxamide] | > 3000 nM
Cc1c(C(F)(F)F)ccc(Oc2ccc(F)c(Cl)c2)c1C(=O)Nc1ccnc(C(N)=O)c1 [Compound 127, 4-[[6-(3-chloro-4-fluoro-phenoxy)-2-methyl-3-(trifluoromethyl)benzoyl]amino]pyridine-2-carboxamide] | 150 nM
COc1cc(OC(F)(F)F)ccc1Oc1ccc(C(F)(F)F)c(C)c1C(=O)Nc1cc(C(N)=O)ncc1C [Compound 153] | 7 nM
Cc1cnc(C(N)=O)cc1NC(=O)c1c(Oc2ccc(OC(F)(F)F)c(F)c2C)ccc(C(F)(F)F)c1F [Compound 291, 4-[[2-Fluoro-6-[3-Fluoro-2-Methyl-4-(Trifluoromethoxy)Phenoxy]-3-(Trifluoromethyl)Benzoyl]Amino]-5-Methyl-Pyridine-2-Carboxamide] | 12.8 nM

The next lines start with the values.

IC50 | Structure (SMILES)
> 3000 nM | [2H]C([2H])([2H])Oc1cc(OC(F)(F)F)ccc1Oc1cc(-c2ccccc2C(N)=O)cc(F)c1C(=O)Nc1ccnc(C(N)=O)c1 [Compound 1006, 4-[[4-(2-carbamoylphenyl)-2-fluoro-6-[2-(trideuteriomethoxy)-4-(trifluoromethoxy)phenoxy]benzoyl]amino]pyridine-2-carboxamide]
36 nM | COc1c(Oc2cc(F)c(F)c(F)c2C(=O)Nc2cnc(C(N)=O)nc2)ccc(OC(F)(F)F)c1F [Compound 308, 5-[[2,3,4-trifluoro-6-[3-fluoro-2-methoxy-4-(trifluoromethoxy)phenoxy]benzoyl]amino]pyrimidine-2-carboxamide]
27 nM | NC(=O)c1cc(NC(=O)c2c(Oc3ccc(F)c(F)c3Cl)ccc(C(F)(F)F)c2F)ccn1 [Compound 339, 4-[[6-(2-chloro-3,4-difluoro-phenoxy)-2-fluoro-3-(trifluoromethyl)benzoyl]amino]pyridine-2-carboxamide]
> 3000 nM | Cc1c(C(F)(F)F)ccc(Oc2ccc(Cl)cc2F)c1C(=O)Nc1ccc(C(N)=O)nc1 [Compound 234, 5-[[6-(4-chloro-2-fluoro-phenoxy)-2-methyl-3-(trifluoromethyl)benzoyl]amino]pyridine-2-carboxamide]
16 nM | Cc1c(C(F)(F)F)ccc(Oc2ccc(OC(C)C)c(Cl)c2)c1C(=O)Nc1ccnc(C(N)=O)c1 [Compound 124, 4-[[6-(3-chloro-4-isopropoxy-phenoxy)-2-methyl-3-(trifluoromethyl)benzoyl]amino]pyridine-2-carboxamide]
36 nM | [2H]C([2H])([2H])Oc1cc(OC(F)(F)F)ccc1Oc1cc(-c2ccc(F)cc2)cc(F)c1C(=O)Nc1ccnc(C(N)=O)c1 [Compound 89, 4-[[2-fluoro-4-(4-fluorophenyl)-6-[2-(trideuteriomethoxy)-4-(trifluoromethoxy)phenoxy]benzoyl]amino]pyridine-2-carboxamide]
370 nM | Cc1c(Oc2ccc(C(F)(F)F)c(F)c2C(=O)Nc2ccc(C(N)=O)nc2)ccc(F)c1F [Compound 207, 5-[[6-(3,4-difluoro-2-methyl-phenoxy)-2-fluoro-3-(trifluoromethyl)benzoyl]amino]pyridine-2-carboxamide]
695 nM | COc1c(Oc2ccc(C(F)(F)F)c(F)c2C(=O)Nc2ccc(C(N)=O)nc2)ccc(F)c1F [Compound 118, 5-[[6-(3,4-difluoro-2-methoxy-phenoxy)-2-fluoro-3-(trifluoromethyl)benzoyl]amino]pyridine-2-carboxamide]
27 nM | CCc1cc(C(F)(F)F)cc(Oc2ccc(OC(F)(F)F)cc2OC)c1C(=O)Nc1ccnc(C(N)=O)c1 [Compound 178, 4-[[2-ethyl-6-[2-methoxy-4-(trifluoromethoxy)phenoxy]-4-(trifluoromethyl)benzoyl]amino]pyridine-2-carboxamide]
> 3000 nM | COc1cc(F)ccc1Oc1cc(C(F)(F)F)ccc1C(=O)Nc1ccnc(C(N)=O)c1 [Compound 159, 4-[[2-(4-fluoro-2-methoxy-phenoxy)-4-(trifluoromethyl)benzoyl]amino]pyridine-2-carboxamide]
20.3 nM | Cc1cnc(C(N)=O)cc1NC(=O)c1c(Oc2ccc(OC(F)(F)F)c(F)c2C)ccc(C(F)(F)F)c1C [Compound 288, 4-[[6-[3-Fluoro-2-Methyl-4-(Trifluoromethoxy)Phenoxy]-2-Methyl-3-(Trifluoromethyl)Benzoyl]Amino]-5-Methyl-Pyridine-2-Carboxamide]
57 nM | COc1cc(OC(F)(F)F)ccc1Oc1cc(C2CC2)c(C(F)(F)F)nc1C(=O)Nc1ccnc(C(N)=O)c1 [Compound 282, N-(2-Carbamoyl-4-Pyridyl)-5-Cyclopropyl-3-[2-Methoxy-4-(Trifluoromethoxy)Phenoxy]-6-(Trifluoromethyl)Pyridine-2-Carboxamide]
12 nM | COc1cc(OC(F)(F)F)ccc1Oc1ccc(C(F)(F)F)c(C)c1C(=O)Nc1ccc(C(N)=O)nc1 [Compound 152]
170 nM | COc1cc(OC(F)(F)F)ccc1Oc1cc(C(F)(F)F)cc(OC)c1C(=O)Nc1ccnc(C(N)=O)c1 [Compound 277, 4-[[2-Methoxy-6-[2-Methoxy-4-(Trifluoromethoxy)Phenoxy]-4-(Trifluoromethyl)Benzoyl]Amino]Pyridine-2-Carboxamide]
63 nM | [2H]C([2H])([2H])Oc1cc(OC(F)(F)F)ccc1Oc1cc(-c2ccccc2)cc(F)c1C(=O)Nc1ccnc(C(N)=O)c1 [Compound 92, 4-[[2-fluoro-4-phenyl-6-[2-(trideuteriomethoxy)-4-(trifluoromethoxy)phenoxy]benzoyl]amino]pyridine-2-carboxamide]
695 nM | COc1cc(OC(F)(F)F)ccc1Oc1cc(C2=CCC(C(F)(F)F)CC2)ccc1C(=O)Nc1ccnc(C(N)=O)c1 (stereo not drawn) [Compound 1029, 4-[[2-[2-methoxy-4-(trifluoromethoxy)phenoxy]-4-[4-(trifluoromethyl)cyclohexen-1-yl]benzoyl]amino]pyridine-2-carboxamide]
> 3000 nM | NC(=O)c1cc(NC(=O)c2c(Oc3c(F)cc(F)cc3F)ccc(C(F)(F)F)c2F)ccn1 [Compound 46, 4-[[2-fluoro-3-(trifluoromethyl)-6-(2,4,6-trifluorophenoxy)benzoyl]amino]pyridine-2-carboxamide]
6.5 nM | Cc1c(Oc2ccc(Cl)c(F)c2C(=O)Nc2ccnc(C(N)=O)c2)ccc(OC(F)(F)F)c1F [Compound 295, 4-[[3-Chloro-2-Fluoro-6-[3-Fluoro-2-Methyl-4-(Trifluoromethoxy)Phenoxy]Benzoyl]Amino]Pyridine-2-Carboxamide]
20 nM | Cc1c(C(F)(F)F)ccc(Oc2ccc(OC(F)(F)F)c(Cl)c2)c1C(=O)Nc1ccnc(C(N)=O)c1 [Compound 138, 4-[[6-[3-chloro-4-(trifluoromethoxy)phenoxy]-2-methyl-3-(trifluoromethyl)benzoyl]amino]pyridine-2-carboxamide]
